Assay results as given in ChEMBL document CHEMBL2390840, “An analysis of the synthetic tryptamines AMT and 5-MeO-DALT: emerging 'Novel Psychoactive Drugs'” (Bioorg Med Chem Lett, 2013).

Legend:
[1] = target: Sodium-dependent dopamine transporter (Homo sapiens, UniProt Q01959); assay type: cell-based, HEK293
[2] = target: Sodium-dependent serotonin transporter (Homo sapiens, UniProt P31645); assay type: cell-based, HEK293
[3] = target: Sodium-dependent noradrenaline transporter (Homo sapiens, UniProt P23975); assay: Inhibition of [3H]norepinephrine uptake at human NET expressed in HEK293 cells preincubated for 10 mins prior to substrate addition measured after 4 mins by […]; assay type: cell-based
Sodium-dependent noradrenaline transporter, sequence (P23975 whole entry): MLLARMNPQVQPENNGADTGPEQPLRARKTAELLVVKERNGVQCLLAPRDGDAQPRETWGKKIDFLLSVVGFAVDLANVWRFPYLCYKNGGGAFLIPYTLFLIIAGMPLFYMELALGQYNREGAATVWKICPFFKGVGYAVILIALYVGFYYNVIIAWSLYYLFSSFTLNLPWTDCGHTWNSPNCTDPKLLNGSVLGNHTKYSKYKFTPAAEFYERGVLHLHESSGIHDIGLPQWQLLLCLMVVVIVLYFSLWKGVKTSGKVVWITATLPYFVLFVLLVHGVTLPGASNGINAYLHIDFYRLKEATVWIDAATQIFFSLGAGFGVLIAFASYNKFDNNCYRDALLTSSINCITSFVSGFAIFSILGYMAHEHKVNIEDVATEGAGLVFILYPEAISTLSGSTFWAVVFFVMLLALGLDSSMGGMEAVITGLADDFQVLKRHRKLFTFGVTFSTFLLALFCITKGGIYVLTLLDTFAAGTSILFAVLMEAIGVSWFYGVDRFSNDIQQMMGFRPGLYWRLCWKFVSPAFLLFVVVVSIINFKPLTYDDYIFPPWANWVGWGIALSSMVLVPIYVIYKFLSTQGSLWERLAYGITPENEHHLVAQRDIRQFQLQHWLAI

Sodium-dependent serotonin transporter, sequence (P31645 whole entry): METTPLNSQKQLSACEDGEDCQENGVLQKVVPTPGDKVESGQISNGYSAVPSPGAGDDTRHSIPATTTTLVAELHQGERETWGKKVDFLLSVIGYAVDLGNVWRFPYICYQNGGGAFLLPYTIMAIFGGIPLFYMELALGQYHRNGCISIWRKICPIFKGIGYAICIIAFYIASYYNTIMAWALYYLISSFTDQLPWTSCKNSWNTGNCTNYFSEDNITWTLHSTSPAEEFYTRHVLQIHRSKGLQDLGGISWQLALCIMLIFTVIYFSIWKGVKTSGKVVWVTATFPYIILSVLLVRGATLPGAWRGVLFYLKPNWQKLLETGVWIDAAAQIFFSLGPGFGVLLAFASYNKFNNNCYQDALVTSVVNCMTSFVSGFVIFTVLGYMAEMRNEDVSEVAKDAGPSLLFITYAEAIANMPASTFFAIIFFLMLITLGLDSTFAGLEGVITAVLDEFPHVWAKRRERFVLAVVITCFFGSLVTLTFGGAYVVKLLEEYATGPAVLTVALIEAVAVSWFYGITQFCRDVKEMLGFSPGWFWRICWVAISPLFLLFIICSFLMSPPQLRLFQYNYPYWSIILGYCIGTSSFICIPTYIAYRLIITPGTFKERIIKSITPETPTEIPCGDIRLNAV
Sodium-dependent dopamine transporter, sequence (Q01959 whole entry): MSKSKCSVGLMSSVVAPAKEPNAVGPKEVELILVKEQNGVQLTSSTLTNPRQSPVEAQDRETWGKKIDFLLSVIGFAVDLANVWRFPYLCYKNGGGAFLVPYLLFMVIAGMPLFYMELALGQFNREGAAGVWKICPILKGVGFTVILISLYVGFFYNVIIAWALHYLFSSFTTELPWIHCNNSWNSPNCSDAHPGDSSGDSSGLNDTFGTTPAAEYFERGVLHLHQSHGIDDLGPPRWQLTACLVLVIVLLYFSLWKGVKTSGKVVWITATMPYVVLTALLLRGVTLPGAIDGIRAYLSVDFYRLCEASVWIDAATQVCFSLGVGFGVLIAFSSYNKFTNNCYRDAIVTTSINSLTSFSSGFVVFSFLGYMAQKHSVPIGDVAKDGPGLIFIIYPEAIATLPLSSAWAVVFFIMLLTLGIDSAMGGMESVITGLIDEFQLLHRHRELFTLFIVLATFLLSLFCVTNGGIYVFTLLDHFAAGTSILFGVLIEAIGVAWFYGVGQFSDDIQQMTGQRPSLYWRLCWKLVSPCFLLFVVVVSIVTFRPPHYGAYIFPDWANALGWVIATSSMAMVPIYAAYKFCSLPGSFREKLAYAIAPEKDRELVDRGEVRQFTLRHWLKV

Row | Structure (SMILES) | IC50 [1] [nM] | Ki [1] [nM] | IC50 [2] [nM] | Ki [2] [nM] | IC50 [3] [nM] | Ki [3] [nM]
1 | CN(C)CCC=C1c2ccccc2CCc2ccccc21 [AMITRIPTYLINE] | 12600 | 6200 |  |  |  | 
2 | CC(N)Cc1ccc2c(c1)OCO2 (single isomer, unassigned; (-)) [TENAMFETAMINE] | 6170 | 2420 | 6760 | 2310 | 3160 | 704
3 | CN[C@@H](C)Cc1ccc2c(c1)OCO2 (single isomer, unassigned; (+)) [MIDOMAFETAMINE] | 2400 | 897 | 2750 |  | 2000 | 
